Test results reported in US20120270237A9, “METHODS FOR THE IDENTIFICATION OF KINASE INTERACTING MOLECULES AND FOR THE PURIFICATION OF KINASE PROTEINS” (Cellzone AG, priority 2009, published 2012).

Experiments:
PKCa = PKCa (Homo sapiens, UniProt P17252); assay: Kinobeads competition binding, HeLa Placenta lysate mix; design: capturing and identification of kinases from mixed HeLa placenta lysates; endogenous in cells; host or cells: HeLa cells mixed with placenta tissue lysate; conditions: 10 μM free compound
Experimental: (§1) To one aliquot of cell lysate 10 μM of the free compound (FIG. 3, CZC31326) was added and allowed to bind to proteins in the lysate. Then the affinity matrix with the immobilized compound was added to capture proteins that were not interacting with the previously added free compound. Beads were separated from the lysate and bead bound proteins were eluted in SDS sample buffer and subsequently separated by SDS-Polyacrylamide gel electrophoresis (FIG. 10). Suitable gel bands were cut out and subjected to in-gel proteolytic digestion with trypsin. The second lysate aliquot was processed identically, however no free compound was added (DMSO solvent control). Peptides originating from samples 1 and 2 were labeled with iTRAQ reagents (iTRAQ 114 and iTRAQ 117) and the combined samples were analyzed with a nano-flow liquid chromatography system coupled online to a tandem mass spectrometer (LC-MS/MS) experiment followed by iTRAQ reporter ion quantification in the MS/MS spectra as described in Example 2.

RSK2 = RSK2 (Homo sapiens, UniProt P51812); assay: as above; design: capturing and identification of kinases from mixed HeLa placenta lysates; endogenous in cells; host or cells: HeLa cells mixed with placenta tissue lysate; conditions: 10 μM free compound
Chain of RSK2 (P51812 whole entry): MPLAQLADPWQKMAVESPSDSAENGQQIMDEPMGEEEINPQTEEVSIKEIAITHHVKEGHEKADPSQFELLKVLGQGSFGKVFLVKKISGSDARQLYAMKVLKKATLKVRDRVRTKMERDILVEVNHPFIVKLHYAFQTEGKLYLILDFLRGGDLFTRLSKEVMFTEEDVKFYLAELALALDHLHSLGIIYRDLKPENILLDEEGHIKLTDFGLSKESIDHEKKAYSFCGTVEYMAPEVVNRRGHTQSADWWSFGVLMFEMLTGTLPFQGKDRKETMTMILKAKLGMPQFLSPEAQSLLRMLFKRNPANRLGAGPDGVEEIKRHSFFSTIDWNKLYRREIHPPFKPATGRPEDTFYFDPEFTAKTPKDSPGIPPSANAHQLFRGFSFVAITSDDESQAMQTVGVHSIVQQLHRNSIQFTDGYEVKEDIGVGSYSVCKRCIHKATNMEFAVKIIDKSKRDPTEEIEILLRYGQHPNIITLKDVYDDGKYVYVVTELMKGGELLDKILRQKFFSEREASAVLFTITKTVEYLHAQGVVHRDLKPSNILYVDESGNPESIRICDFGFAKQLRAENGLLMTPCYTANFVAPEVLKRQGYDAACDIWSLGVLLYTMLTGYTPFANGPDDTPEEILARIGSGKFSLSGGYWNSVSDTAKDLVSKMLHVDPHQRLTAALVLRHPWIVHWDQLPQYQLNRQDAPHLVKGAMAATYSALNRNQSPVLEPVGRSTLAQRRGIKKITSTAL
Experimental: as §1

PHKg2 = molecular target: T1, PHKg2 (Homo sapiens, UniProt P15735); assay: as above; design: capturing and identification of kinases from mixed HeLa placenta lysates; endogenous in cells; host or cells: HeLa cells mixed with placenta tissue lysate; conditions: 10 μM free compound
T1 sequence (P15735 1-406): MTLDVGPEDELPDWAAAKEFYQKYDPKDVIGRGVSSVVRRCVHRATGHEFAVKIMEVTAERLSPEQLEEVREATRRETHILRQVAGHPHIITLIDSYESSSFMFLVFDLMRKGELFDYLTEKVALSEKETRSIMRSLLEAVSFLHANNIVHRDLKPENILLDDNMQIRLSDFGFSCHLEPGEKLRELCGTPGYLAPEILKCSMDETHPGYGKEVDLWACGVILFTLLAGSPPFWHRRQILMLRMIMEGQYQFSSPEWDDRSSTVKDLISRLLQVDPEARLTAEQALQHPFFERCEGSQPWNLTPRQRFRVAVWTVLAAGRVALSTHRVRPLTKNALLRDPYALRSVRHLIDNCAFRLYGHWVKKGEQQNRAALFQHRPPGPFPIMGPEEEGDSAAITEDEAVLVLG
Experimental: as §1

PYK2 = PYK2 (Homo sapiens, UniProt Q14289); assay: as above; design: capturing and identification of kinases from mixed HeLa placenta lysates; endogenous in cells; host or cells: HeLa cells mixed with placenta tissue lysate; conditions: 10 μM free compound
Experimental: as §1

SLK [1] = molecular target: T2, SLK (Homo sapiens, UniProt Q9H2G2); assay: as above; design: capturing and identification of kinases from mixed HeLa placenta lysates; endogenous in cells; host or cells: HeLa cells mixed with placenta tissue lysate; conditions: 10 μM free compound
T2 sequence (Q9H2G2 whole entry): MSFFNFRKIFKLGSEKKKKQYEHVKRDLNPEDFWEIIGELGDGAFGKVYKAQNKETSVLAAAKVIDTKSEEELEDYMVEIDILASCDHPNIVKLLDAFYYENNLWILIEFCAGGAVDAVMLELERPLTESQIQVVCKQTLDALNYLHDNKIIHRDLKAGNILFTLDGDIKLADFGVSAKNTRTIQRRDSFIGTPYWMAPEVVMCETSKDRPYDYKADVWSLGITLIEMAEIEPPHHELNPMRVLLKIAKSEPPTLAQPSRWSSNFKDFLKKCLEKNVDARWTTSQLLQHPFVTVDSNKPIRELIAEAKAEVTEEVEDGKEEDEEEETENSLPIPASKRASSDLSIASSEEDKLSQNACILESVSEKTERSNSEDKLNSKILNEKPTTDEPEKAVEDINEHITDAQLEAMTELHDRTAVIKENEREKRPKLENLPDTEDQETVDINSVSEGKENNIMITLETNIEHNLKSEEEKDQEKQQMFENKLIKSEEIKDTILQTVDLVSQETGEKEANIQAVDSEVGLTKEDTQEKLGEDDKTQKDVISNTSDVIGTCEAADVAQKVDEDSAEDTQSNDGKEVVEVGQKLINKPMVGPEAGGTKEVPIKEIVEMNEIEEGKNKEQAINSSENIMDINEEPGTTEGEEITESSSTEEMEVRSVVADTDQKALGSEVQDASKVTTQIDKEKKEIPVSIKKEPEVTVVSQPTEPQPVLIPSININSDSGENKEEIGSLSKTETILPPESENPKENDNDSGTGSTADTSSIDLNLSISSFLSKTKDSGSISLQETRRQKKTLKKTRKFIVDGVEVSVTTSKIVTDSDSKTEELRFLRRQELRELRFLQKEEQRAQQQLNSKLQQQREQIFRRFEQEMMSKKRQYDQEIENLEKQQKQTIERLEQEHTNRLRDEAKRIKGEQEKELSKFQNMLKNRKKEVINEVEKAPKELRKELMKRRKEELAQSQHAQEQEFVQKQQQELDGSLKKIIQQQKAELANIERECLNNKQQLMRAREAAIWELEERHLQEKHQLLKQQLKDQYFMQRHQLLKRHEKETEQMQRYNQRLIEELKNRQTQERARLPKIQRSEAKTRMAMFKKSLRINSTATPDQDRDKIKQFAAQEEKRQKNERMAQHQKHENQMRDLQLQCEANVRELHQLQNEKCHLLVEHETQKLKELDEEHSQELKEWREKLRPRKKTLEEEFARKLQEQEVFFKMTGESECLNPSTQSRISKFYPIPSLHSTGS
Experimental: as §1

PLK1 = PLK1 (Homo sapiens, UniProt P53350); assay: as above; design: capturing and identification of kinases from mixed HeLa placenta lysates; endogenous in cells; host or cells: HeLa cells mixed with placenta tissue lysate; conditions: 10 μM free compound
Experimental: as §1

PKN2 = PKN2 (Homo sapiens, UniProt Q16513); assay: as above; design: capturing and identification of kinases from mixed HeLa placenta lysates; endogenous in cells; host or cells: HeLa cells mixed with placenta tissue lysate; conditions: 10 μM free compound
Chain of PKN2 (Q16513 whole entry): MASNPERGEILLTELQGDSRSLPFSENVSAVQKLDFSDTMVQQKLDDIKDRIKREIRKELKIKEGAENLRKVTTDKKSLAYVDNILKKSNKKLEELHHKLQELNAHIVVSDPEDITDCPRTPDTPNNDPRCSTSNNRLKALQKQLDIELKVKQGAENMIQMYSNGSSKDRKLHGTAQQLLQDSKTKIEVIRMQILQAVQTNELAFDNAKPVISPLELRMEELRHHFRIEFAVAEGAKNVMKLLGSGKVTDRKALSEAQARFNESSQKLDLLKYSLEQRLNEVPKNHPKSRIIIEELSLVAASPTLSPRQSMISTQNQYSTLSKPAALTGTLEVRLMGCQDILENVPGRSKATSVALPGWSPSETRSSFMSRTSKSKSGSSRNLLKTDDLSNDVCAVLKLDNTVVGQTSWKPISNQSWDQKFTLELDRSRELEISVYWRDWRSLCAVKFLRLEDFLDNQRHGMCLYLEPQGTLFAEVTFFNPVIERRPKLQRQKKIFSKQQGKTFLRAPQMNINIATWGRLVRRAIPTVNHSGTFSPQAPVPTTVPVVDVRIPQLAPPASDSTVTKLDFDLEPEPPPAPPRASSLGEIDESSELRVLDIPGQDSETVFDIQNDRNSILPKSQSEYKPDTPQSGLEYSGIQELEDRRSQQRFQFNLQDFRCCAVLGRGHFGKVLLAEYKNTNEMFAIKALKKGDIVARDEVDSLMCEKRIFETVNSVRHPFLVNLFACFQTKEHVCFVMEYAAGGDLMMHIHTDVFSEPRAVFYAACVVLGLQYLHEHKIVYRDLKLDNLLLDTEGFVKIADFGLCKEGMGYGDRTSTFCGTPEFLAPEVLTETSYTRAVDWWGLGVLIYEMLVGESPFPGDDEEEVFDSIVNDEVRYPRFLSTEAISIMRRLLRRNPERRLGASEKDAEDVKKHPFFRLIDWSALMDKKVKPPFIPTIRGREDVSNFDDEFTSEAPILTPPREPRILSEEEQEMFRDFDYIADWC
Experimental: as §1

ADCK1 = molecular target: T3, ADCK1 (Homo sapiens, UniProt Q86TW2); assay: Kinobeads competition binding, L-363 cell lysate; conditions: 10 μM free compound, L-363 lysate
T3 construct: capturing and identification of kinases from L-363 cell lysate; endogenous in cells; host or cells: L-363 (treated with MG132 before harvest)
Experimental: as §1, with “8).” for “10).”
(§2) For this experiment the human plasma cell leukaemia line L-363 was used (German Collection of Microorganisms and Cell Cultures, DSMZ number ACC49, Braunschweig, Germany). Cells were treated for three hours with 20 μM of the proteasome inhibitor MG132 (Z-Leu-Leu-Leu-al, Sigma C2211) prior to cell harvesting.

NuaK2 = molecular target: T4, NuaK2 (Homo sapiens, UniProt Q9H093); assay: Kinobeads competition binding, L-363 cell lysate; conditions: 10 μM free compound, L-363 lysate
T4 construct: capturing and identification of kinases from L-363 cell lysate; endogenous in cells; host or cells: L-363 (DSMZ ACC49), treated with MG132 before harvest
T4 sequence (Q9H093 whole entry): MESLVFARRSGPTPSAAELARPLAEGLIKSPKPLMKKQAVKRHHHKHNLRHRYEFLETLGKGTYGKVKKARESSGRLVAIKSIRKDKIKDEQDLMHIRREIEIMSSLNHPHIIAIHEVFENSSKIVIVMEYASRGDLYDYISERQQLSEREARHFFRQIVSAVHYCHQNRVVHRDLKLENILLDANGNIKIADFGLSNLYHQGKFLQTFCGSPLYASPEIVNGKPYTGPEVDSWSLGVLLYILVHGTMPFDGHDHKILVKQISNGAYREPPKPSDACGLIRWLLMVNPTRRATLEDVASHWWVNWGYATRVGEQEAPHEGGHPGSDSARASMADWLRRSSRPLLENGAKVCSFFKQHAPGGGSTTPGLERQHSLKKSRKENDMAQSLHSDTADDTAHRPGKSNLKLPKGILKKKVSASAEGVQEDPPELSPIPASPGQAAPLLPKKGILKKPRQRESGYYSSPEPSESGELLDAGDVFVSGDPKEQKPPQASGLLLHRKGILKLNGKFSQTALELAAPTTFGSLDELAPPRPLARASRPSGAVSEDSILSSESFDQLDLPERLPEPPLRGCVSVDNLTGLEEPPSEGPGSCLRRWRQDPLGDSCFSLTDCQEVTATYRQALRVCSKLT
Experimental: as §1, with “8).” for “10).”
as §2

NEK6 = molecular target: T5, NEK6 (Homo sapiens, UniProt Q9HC98); assay: Kinobeads competition binding, L-363 cell lysate; conditions: 10 μM free compound, L-363 lysate
T5 construct: capturing and identification of kinases from L-363 cell lysate; endogenous in cells; host or cells: L-363 (DSMZ ACC49), treated with MG132 before harvest
T5 sequence (Q9HC98 whole entry): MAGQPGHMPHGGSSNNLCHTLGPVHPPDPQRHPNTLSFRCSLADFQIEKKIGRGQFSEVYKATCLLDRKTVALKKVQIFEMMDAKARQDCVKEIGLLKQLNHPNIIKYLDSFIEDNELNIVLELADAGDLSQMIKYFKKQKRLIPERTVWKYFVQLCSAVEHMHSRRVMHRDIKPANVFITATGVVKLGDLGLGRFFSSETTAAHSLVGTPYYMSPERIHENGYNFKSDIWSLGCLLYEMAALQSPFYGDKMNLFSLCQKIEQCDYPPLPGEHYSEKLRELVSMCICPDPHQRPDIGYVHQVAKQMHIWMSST
Experimental: as §1, with “8).” for “10).”
as §2

SLK [2] = molecular target: T2, SLK; assay: Kinobeads competition binding, L-363 cell lysate; conditions: 10 μM free compound, L-363 lysate
Experimental: as §1, with “8).” for “10).”
as §2

RSK4 = molecular target: T6, RSK4 (Homo sapiens, UniProt Q9UK32); assay: Kinobeads competition binding, L-363 cell lysate; conditions: 10 μM free compound, L-363 lysate
T6 construct: endogenous in cells; host or cells: L-363 (DSMZ ACC49), treated with MG132 before harvest
T6 sequence (Q9UK32 whole entry): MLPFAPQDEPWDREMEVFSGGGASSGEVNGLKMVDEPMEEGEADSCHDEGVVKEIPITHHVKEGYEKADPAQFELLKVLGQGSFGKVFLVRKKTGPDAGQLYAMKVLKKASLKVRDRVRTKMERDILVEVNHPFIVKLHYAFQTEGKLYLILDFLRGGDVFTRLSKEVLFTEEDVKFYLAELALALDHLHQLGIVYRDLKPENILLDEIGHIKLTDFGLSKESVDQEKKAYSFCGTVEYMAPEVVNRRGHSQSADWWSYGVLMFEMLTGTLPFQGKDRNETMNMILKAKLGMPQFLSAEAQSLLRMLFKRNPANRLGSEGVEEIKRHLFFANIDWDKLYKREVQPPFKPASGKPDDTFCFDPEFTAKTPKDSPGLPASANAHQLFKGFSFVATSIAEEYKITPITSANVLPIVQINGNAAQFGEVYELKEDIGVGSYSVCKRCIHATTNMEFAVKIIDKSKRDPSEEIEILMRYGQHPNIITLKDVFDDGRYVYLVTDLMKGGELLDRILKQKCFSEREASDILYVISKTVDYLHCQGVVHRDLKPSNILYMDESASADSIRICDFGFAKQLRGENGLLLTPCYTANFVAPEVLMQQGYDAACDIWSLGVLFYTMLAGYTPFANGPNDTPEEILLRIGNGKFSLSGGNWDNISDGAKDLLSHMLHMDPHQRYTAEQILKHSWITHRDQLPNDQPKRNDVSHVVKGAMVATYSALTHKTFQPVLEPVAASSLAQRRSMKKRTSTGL
Experimental: as §1, with “8).” for “10).”
as §2

DRAK2 = molecular target: T7, DRAK2 (Homo sapiens, UniProt O94768); assay: Kinobeads competition binding, L-363 cell lysate; conditions: 10 μM free compound, L-363 lysate
T7 construct: capturing and identification of kinases from L-363 cell lysate; endogenous in cells; host or cells: L-363 (DSMZ ACC49), treated with MG132 before harvest
T7 sequence (O94768 whole entry): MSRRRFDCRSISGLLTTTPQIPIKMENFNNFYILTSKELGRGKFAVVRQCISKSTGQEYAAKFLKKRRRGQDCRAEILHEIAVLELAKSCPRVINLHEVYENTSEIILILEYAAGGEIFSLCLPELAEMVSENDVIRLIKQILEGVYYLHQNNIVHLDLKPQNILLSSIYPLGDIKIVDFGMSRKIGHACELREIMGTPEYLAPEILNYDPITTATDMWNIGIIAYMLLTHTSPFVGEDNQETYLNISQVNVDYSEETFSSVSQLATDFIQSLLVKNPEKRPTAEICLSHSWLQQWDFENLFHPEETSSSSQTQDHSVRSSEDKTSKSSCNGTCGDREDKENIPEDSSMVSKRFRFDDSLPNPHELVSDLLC
Experimental: as §1, with “8).” for “10).”
as §2

- inhibition at 10 µM (PKCa): 94.9%
- inhibition at 10 µM (RSK2): 96%
- inhibition at 10 µM (PHKg2): 89.9%
- inhibition at 10 µM (PYK2): 92.7%
- inhibition at 10 µM (SLK [1]): 93.2%
- inhibition at 10 µM (PLK1): 94.7%
- inhibition at 10 µM (PKN2): 94%
- inhibition at 10 µM (ADCK1): 93.8%
- Competition % (NuaK2): 96.7%
- inhibition at 10 µM (NEK6): 83.7%
- inhibition at 10 µM (SLK [2]): 95%
- Competition % (RSK4): 96.7%
- inhibition at 10 µM (DRAK2): 93.3%
Compound: CS(=O)(=O)Nc1ccccc1Nc1nc(Nc2cccc(OCCN)c2)ncc1Cl [CZC31326, N-(2-(2-(3-(2-aminoethoxy)phenylamino)-5-chloropyrimidin-4-ylamino)phenyl)methanesulfonamide]
